Measurements taken from patent US20110136867A1, “Treatment of Synucleinopathies” (priority 2006, published 2011).
Entries after “also recorded” stand apart in the source; their conditions may differ.

How the values were obtained:
[1] = test system: SH-SY5Y cells overexpressing α-synuclein; assay: α-synuclein toxicity in SH-SY5Y cells infected by α-synuclein-expressing adenovirus (Trypan blue viable cell counting, MTT assay); format: cell-based
Procedure: Viral Infection: Viral infection and MTT assay in SH-SY5Y cells: The viruses were amplified and purified according to the published procedure. SH-SY5Y cells were grown on 100 mm petri-dishes and induced with 100 nM retinoic acid for 3-5 days before the virus infection with M.I.O at 75. Viruses were diluted with DPBS to desired M.I.O. After four hours of incubation, 10 ml growth medium was added. On the second day, cells were splitted into 96-well plates and treated with compounds for next 48 hours. The growth medium in each well was replaced with growth medium with 5 ug/ml MTT. Medium was removed after three hours incubation, and 200 ul isopropyl (0.04N HCl) was added into each well. The signal was read at 570 nm.
Viable cell counting: At stated time poins, SH-SY5Y cells were trypsinized with 100 ul trypsin-EDTA for 1 minute and neutralized with 400 ul growth medium. Cell suspension was made up by mixing 0.2 ml of cells in growth medium, 0.3 ml of HBSS and 0.5 ml of 0.4% Trypan Blue solution. Viable cell numbers were counted by standard cell counting chamber.
Since α-synuclein neurotoxicity is dose-dependent, it follows that accumulation of α-synuclein, caused by UCH-L1 farnesylation, should promote its toxicity. […] These cells express high endogenous levels of UCH-L1. […] The unit of y-axis is 10^5 /ml. (F) Cell viability was assessed by the amount of metabolic activity using MTT assay. […]

[2] = test system: UCH-L1; assay: Membrane bound and cytosolic UCH-L1 in SH-SY5Y cells (2D electrophoresis, Western blotting); format: cell-based; conditions: compared to DMSO
Procedure: 2D electrophoresis: For the isolation of total cellular protein, cultured SH-SY5Y cells maintained as described above were rinsed with ice-cold PBS. Cells were lysed in 1 ml dSDS buffer (50 mM Tris-HCl, pH 8.0 0.1% SDS) supplemented with protease inhibitor cocktail. Lysates were boiled for 3 min, and were treated with Dnase and Rnase as described. Lysates were precipitated with ice-cold acetone for at least 2 hours, and pellets were resuspended in 2D sample buffer (8M urea, 0.5% CHAPS, 0.2% DTT, 0.5% IPG buffer, 0.002% bromophenol blue). 2D electrophoresis was carried out according to manufacture's protocol (Amersham Life Science). 7 cm pH 4-7 strips were used. For SH-SY5Y membrane fraction, culture SH-SY5Y cells were rinsed with cold PBS and harvested with lysis buffer (50 mM Tris-HCl, pH 8.0, 1 mM ZnAc2, 250 mM sucrose). Lysate was passed through 25G needles for several times and spun at 1000 g for 5 min. […]
(§1) Western Blotting: Following transfer of SDS gels onto NC membrane, all membranes were blocked with 5% non-fat milk in TBST (50 mM Tris-HCl pH7.4, 150 mM NaCl, 0.1% Tween 20), and incubated with primary antibody overnight with 1% BSA in TBST, washed three times with TBST, and incubated with horseradish peroxidase-conjugated secondary antibody for 1 hour (Promega). Bound antibodies were detected using enhanced chemiluminascence (NEM). […]

[3] = test system: UCH-L1; assay: Total amount and turnover of UCH-L1 in SH-SY5Y cells (pulse-chase); format: cell-based
[4] = test system: α-synuclein; assay: α-synuclein degradation assay in transfected COS-7 cells (quantitative Western blotting); format: cell-based; conditions: COS-7 cells
Text: Plasmids: C220S cDNA was generated by PCR site-specific mutagenesis. For the PCR, the 5′ primer is uchforw SEQ ID NO: 1 ([…]), and 3′ primer is uchc220s SEQ ID NO:2 (CTAAGA […]). Wt UCH-L1 served as the template. The PCR fragment was inserted into pcDNA vector. For S18YC220S mutant, S18Y UCH-L1 served as the template in PCR. For the FLAG tagged UCH-L1, the 5′ primer is FLAGuchforw SEQ ID NO: 3 ([…] CGATGGAG), and the 3′ primer is uchrev SEQ ID NO: 4 ([…]). Wt UCH-L1 or C220S served as the template. PCR fragment was purified and inserted into pcDNA vector. For the FLAG tagged UCH-L3, the 5′ primer is L3HindIII SEQ ID NO: 5 (CTAAAGCTTATGGACTAC […]), the 3′primer is L3XhoISAA SEQ ID NO: 6 ([…]). […] After 24 hours of incubation, the cells were lysed with Tris buffer (50 mM Tris, 2% SDS, 0.1% NP-40), and subjected to SDS-PAGE, followed by quantitative Western blotting.
as §1

[5] = test system: primary dopaminergic cultures; assay: α-synuclein toxicity in primary dopaminergic cultures; format: cell-based
[6] = test system: α-synuclein; assay: α-synuclein accumulation in SH-SY5Y cells infected with α-synuclein-expressing adenovirus (Western blotting, normalized against actin); format: cell-based
Procedure: Western Blotting: Following transfer of SDS gels onto NC membrane, all membranes were blocked with 5% non-fat milk in TBST (50 mM Tris-HCl pH7.4, 150 mM NaCl, 0.1% Tween 20), and incubated with primary antibody overnight with 1% BSA in TBST, washed three times with TBST, and incubated with horseradish peroxidase-conjugated secondary antibody for 1 hour (Promega). Bound antibodies were detected using enhanced chemiluminascence (NEM).
Since α-synuclein neurotoxicity is dose-dependent, it follows that accumulation of α-synuclein, caused by UCH-L1 farnesylation, should promote its toxicity. […] These cells express high endogenous levels of UCH-L1. […] The unit of y-axis is 10^5 /ml. (F) Cell viability was assessed by the amount of metabolic activity using MTT assay. […] The effect of FTI-277 on the α-synuclein accumulation in the SH-SY5Y infected with α-synuclein-expressing adenovirus were analyzed by Western blotting (B) and the amount of α-synuclein (C) was quantified using NIH Image program and normalized against the amount of actin.

[7] = test system: Neuronal Specific Nuclear Protein (NeuN); assay: NeuN staining of cortex and hippocampus of α-synuclein transgenic mice; format: in vivo; conditions: 90 days of treatment
Procedure: (§2) Farnesyl transferase inhibitors Zarnestra and OSI-754 were administered to mice of the α-synuclein transgenic line described in Masliah et al. (Masliah et al. “Dopaminergic loss and inclusion body formation in alpha-synuclein mice: implications for neurodegenerative disorders” Science 287(5456):1265-69, 2000; incorporated herein by reference). Animals from this line have α-synuclein neuronal inclusions in the cortex, hippocampus, and the olfactory bulb (Masliah et al. “Dopaminergic loss and inclusion body formation in alpha-synuclein mice: implications for neurodegenerative disorders” Science 287(5456):1265-69, 2000; incorporated herein by reference). Transgenic mice were orally administered either FTI in 20% cyclodextrin solution or the same volume of vehicle alone twice a day for 30 or 90 days. In some cases, non-transgenic mice also received vehicle twice a day for 30 to 90 days. At the end of treatment, mice were sacrificed, and the brains removed and hemisected. One hemisphere of each was fixed in 4% paraformaldehyde/PBS (pH 7.4), cryoperserved, then sectioned for histology. […]
Formation of α-synucleininclusions in the cortex and hippocampus was probed by immunostaining with an antibody for human α-synuclein. Cells positive for human α-synuclein were quantified. […]

[8] = test system: α-synuclein; assay: Sandwich ELISA of total α-synuclein in brain fractions of α-synuclein transgenic mice; format: in vivo; conditions: vs vehicle
Procedure: (§3) Farnesyl transferase inhibitors Zarnestra and OSI-754 were administered to mice of the α-synuclein transgenic line described in Masliah et al. (Masliah et al. “Dopaminergic loss and inclusion body formation in alpha-synuclein mice: implications for neurodegenerative disorders” Science 287(5456):1265-69, 2000; incorporated herein by reference). Animals from this line have α-synuclein neuronal inclusions in the cortex, hippocampus, and the olfactory bulb (Masliah et al. “Dopaminergic loss and inclusion body formation in alpha-synuclein mice: implications for neurodegenerative disorders” Science 287(5456):1265-69, 2000; incorporated herein by reference). Transgenic mice were orally administered either FTI in 20% cyclodextrin solution or the same volume of vehicle alone twice a day for 30 or 90 days. In some cases, non-transgenic mice also received vehicle twice a day for 30 to 90 days. At the end of treatment, mice were sacrificed, and the brains removed and hemisected. One hemisphere of each was fixed in 4% paraformaldehyde/PBS (pH 7.4), cryoperserved, then sectioned for histology. The other hemisphere was subdivided into four brain regions, including the cortex and hippocampus, that were homogenized and processed into cytoplasmic and membrane fractions.
Total α-synuclein levels were analyzed by a sandwich ELISA assay similar to one previously described (El-Agnaf et al. “Detection of oligomeric forms of alpha-synuclein protein in human plasma as a potential biomarker for Parkinson's disease” FASEB J. 20(3):419-25, 2006; incorporated herein by reference). In the cortex of vehicle treated animals, α-synuclein protein levels in the α-synuclein transgenic line are greater than in non-transgenic mice in both cytoplasmic (FIG. 10) and membrane fractions (FIG. 11).

[9] = test system: α-synuclein; assay: Immunostaining for human α-synuclein in brain sections of α-synuclein transgenic mice; format: in vivo; conditions: 90 days, vs vehicle
Procedure: as §3
Formation of α-synuclein inclusions in the cortex and hippocampus was probed by immunostaining with an antibody for human α-synuclein. Cells positive for human α-synuclein were quantified. […] These regions were also analyzed for ubiquitin-immunoreactive inclusions and by the Campbell Switzer method of silver staining. Ubiquitin is known to be a constituent of Lewy Bodies and in the α-synculein inclusions found in the transgenic mouse line used in the study (Masliah et al. “Dopaminergic loss and inclusion body formation in alpha-synuclein mice: implications for neurodegenerative disorders” Science 287(5456):1265-69, 2000; incorporated herein by reference). […] Campbell-Switzer staining is a general marker of Lewy Body type inclusions (Uchihara et al. “Silver stainings distinguish Lewy bodies and glial cytoplasmic inclusions: comparison between Gallyas-Braak and Campbell-Switzer methods” Acta Neuropathol. (Berl.) 110(3):255-60, 2005; incorporated herein by reference).

[10] = test system: farnesylated UCH-L1; assay: Quantitative Western Blot of farnesylated UCH-L1 in cortex membrane fraction of α-synuclein transgenic mice; format: in vivo; conditions: 45 mg/kg twice a day, 30 days
Procedure: as §2
Farnesylated UCH-L1 in the cortex is contained in the membrane fraction. The amount of UCH-L1 was determined by quantitative Western Blot.
Total α-synuclein levels were analyzed by a sandwich ELISA assay. […] The amount of farnesylated UCH-L1 was determined by quantitative Western Blot, then normalized to actin.

[11] = cortex, 45 mg/kg twice a day, 30 days

COC(=O)[C@H](CCSC)NC(=O)c1ccc(NC[C@@H](N)CS)cc1-c1ccccc1 [FTI-277]
neuroprotective effect of FTI-277 on co-administration of the small-molecule UCH-L1 inhibitor ([1]; SH-SY5Y cells infected with α-synuclein adenovirus, data not shown): eliminated
α-synuclein toxicity / loss of cells ([1]; neuronally differentiated SH-SY5Y cells infected with α-synuclein adenovirus): inhibits synuclein toxicity; also recorded: rescued α-synuclein toxicity; also recorded: significantly decreased loss of cells
amount of cytosolic UCH-L1 [2]: without affecting
amount of membrane bound UCH-L1 [2]: significant decrease; also recorded: decreased the amount of the membrane-associated species
total amount of UCH-L1 [3]: reduced the total amount of UCH-L1
rate of turnover of UCH-L1 ([3]; pulse-chase experiment not shown): increased its rate of turnover
synuclein level [4]: lowers synuclein level
α-synuclein toxicity [5]: inhibit α-synuclein toxicity
amount of α-synuclein [6]: reducing the amount of α-synuclein accumulation; also recorded: reduced the amount of α-synuclein

C#Cc1cccc(-c2cc(=O)n(C)c3ccc(C(O)(c4ccc(Cl)cc4)c4cncn4C)cc23)c1 (stereo not drawn) [OSI-754]
neuronal morphology or density (NeuN staining) [7]: did not affect neuronal morphology or density
α-synuclein protein levels, cytoplasmic fraction ([8]; cortex, 9 mg/kg twice a day, 90 days): lower α-synuclein protein levels
α-synuclein protein levels, cytoplasmic fraction [8, 11]: lower α-synuclein protein levels
α-synuclein protein levels, membrane fraction [8, 11]: lower α-synuclein protein levels
α-synuclein protein levels, cytoplasmic fraction ([8]; cortex, 45 mg/kg twice a day, 90 days): lower α-synuclein protein levels
α-synuclein protein levels, membrane fraction ([8]; hippocampus, 9 mg/kg twice a day, 90 days): lower α-synuclein protein levels
α-synuclein protein levels, membrane fraction ([8]; hippocampus, 45 mg/kg twice a day, 90 days): lower α-synuclein protein levels
α-synuclein-positive cells per mm^2 ([9]; cortex, 9 mg/kg twice a day): fewer
α-synuclein-positive cells per mm^2 ([9]; cortex, 45 mg/kg twice a day): fewer
α-synuclein-positive cells per mm^2 ([9]; hippocampus, 9 mg/kg twice a day): fewer
α-synuclein-positive cells per mm^2 ([9]; hippocampus, 45 mg/kg twice a day): fewer
amount of farnesylated UCH-L1, normalized to actin [10]: decreased the amount of farnesylated UCH-L1
